According to ChEMBL document CHEMBL1134883, “Antimalarial activity of ferrocenyl chalcones” (Bioorg Med Chem Lett, 2002):

system: Plasmodium falciparum; assay: Growth inhibition of chloroquine-resistant Plasmodium falciparum K1 by [3H]hypoxanthine uptake; format: functional, organism-based

| Substance | IC50 |
| --- | --- |
| 1-(1-Naphthalenyl)-3-ferrocenyl-2-propen-1-one | 47.4 µM |
| 1-(2,3,4-Trimethoxyphenyl)-3-ferrocenyl-2-propen-1-one | 22.5 µM |
| 1-(2,4-Dihydroxyphenyl)-3-ferrocenyl-2-propen-1-one | 31.5 µM |
| 1-(2,4-Dimethoxyphenyl)-3-ferrocenyl-2-propen-1-one | 24.5 µM |
| 1-(2-Hydroxyphenyl)-3-ferrocenyl-2-propen-1-one | 73.5 µM |
| 1-(2-Naphthalenyl)-3-ferrocenyl-2-propen-1-one | 21 µM |
| 1-(3-pyridyl)-3-ferrocenyl-2-propen-1-one | 4.6 µM |
| 1-(4-Butoxyphenyl)-3-ferrocenyl-2-propen-1-one | 80 µM |
| 1-(4-Ethoxyphenyl)-3-ferrocenyl-2-propen-1-one | 200 µM |
| 1-(4-Hydroxyphenyl)-3-ferrocenyl-2-propen-1-one | 36 µM |
| 1-(4-Methoxyphenyl)-3-ferrocenyl-2-propen-1-one | 410 µM |
| 1-(phenyl)-3-ferrocenyl-2-propen-1-one | 175 µM |
| 1-ferrocenyl-3-(1-Naphthalenyl)-2-propen-1-one | 48.3 µM |
| 1-ferrocenyl-3-(2,4-Dichlorophenyl)-2-propen-1-one | 29.4 µM |
| 1-ferrocenyl-3-(2,4-Difluorophenyl)-2-propen-1-one | 23.2 µM |
| 1-ferrocenyl-3-(2,4-Dimethoxyphenyl)-2-propen-1-one | 18 µM |

| Substance | IC50 |
| --- | --- |
| 1-ferrocenyl-3-(2-Chlorophenyl)-2-propen-1-one | 42.4 µM |
| 1-ferrocenyl-3-(2-Naphthalenyl)-2-propen-1-one | 73.5 µM |
| 1-ferrocenyl-3-(3-Chlorophenyl)-2-propen-1-one | 36.2 µM |
| 1-ferrocenyl-3-(3-Quinolinyl)-2-propen-1-one | 18.2 µM |
| 1-ferrocenyl-3-(3-pyridinyl)-2-propen-1-one | 17 µM |
| 1-ferrocenyl-3-(4-Chlorophenyl)-2-propen-1-one | 14.5 µM |
| 1-ferrocenyl-3-(4-Cyanophenyl)-2-propen-1-one | 26.5 µM |
| 1-ferrocenyl-3-(4-Fluorophenyl)-2-propen-1-one | 12.1 µM |
| 1-ferrocenyl-3-(4-Hydroxyphenyl)-2-propen-1-one | 20.6 µM |
| 1-ferrocenyl-3-(4-Methoxyphenyl)-2-propen-1-one | 17 µM |
| 1-ferrocenyl-3-(4-Methylphenyl)-2-propen-1-one | 147 µM |
| 1-ferrocenyl-3-(4-Nitrophenyl)-2-propen-1-one | 5.1 µM |
| 1-ferrocenyl-3-(4-Quinolinyl)-2-propen-1-one | 14 µM |
| 1-ferrocenyl-3-(4-Trifluoromethylphenyl)-2-propen-1-one | 58.4 µM |
| 1-ferrocenyl-3-(phenyl)-2-propen-1-one | 19 µM |
